Test results: patent US20060160114A1, “Reagents and methods for predicting drug resistance” (Oncotech, Inc., priority 2004, published 2006)

Test system: tumor cells from patient tumor samples
Assay: Extreme Drug Resistance (EDR) assay, tritiated thymidine incorporation in soft agarose culture
Assay type: cell-based, human
Conditions: supratoxic dose 33 μM, positive (background) control group
Procedure: In the practice of this assay, tumor cells are taken from a cancer biopsy and exposed to cancer chemotherapeutics in culture. During the culture period, radioactive thymidine is added, which is incorporated into the DNA of growing and dividing cancer cells (which are thus resistant to the cytostatic or cytotoxic effects of the cancer chemotherapeutic). Tritiated thymidine is not incorporated into cells that are sensitive to the drug and reduce or suspend growth and division in response to the drug. […] By measuring the amount of radioactivity in a sample, the assay determines the relative resistance of an individual patient's cancer cells to a number of different chemotherapies. […]
The EDR assay is an agarose-based culture system, using tritiated thymidine incorporation to define in vitro drug response. […] The radioactivity trapped on the filters was counted with an LS-6500 scintillation Counter (Beckman, Fullerton, Calif.). […] Detectable radioactivity for this group was considered non-specific background related to debris trapping of tritiated thymidine on the filter. After subtracting background control values, percent control inhibition (PCI) of proliferation was determined by comparing thymidine incorporation by the treatment group with incorporation by the negative control group: PCI=100%×[1−(CPM treatment group/CPM control group)]. […]

## N.N.[Cl][Pt][Cl] [Cisplatin]
  cell death: 100%
